# Test results published in patent US7056890B2, “Combination therapy for effecting weight loss and treating obesity” (VIVUS, Inc., priority 1999, dated 2006).
# What was measured:
# [1] = Trial of phentermine in combination with topiramate to effect weight loss in patients; format: in vivo, human; settings: follow-up 2-9 weeks
# Protocol: Patients as part of the following trial were treated according to the following dosage regimen. Patients took phentermine at a dose of 15 mg daily throughout the weight loss program, before breakfast. For the first 6 days, patients took one 25 mg tablet of topiramate before supper. For the next 6 days, patients took two 25 mg tablets of topiramate before supper. For the next 7 days (days 13–19), patients took 100 mg before supper daily using 4–25 mg tablets of topiramate daily. For days 20–26, patients took 150 mg of topiramate daily consisting of one-half of a 200 mg tablet and two 25-mg mg tablets of topiramate. From that point on, unless instructed otherwise by the physician, patients continued to take one 200 mg topiramate tablet daily before supper and continued the 15 mg phentermine daily in the morning. Patients were advised to drink at least eight (8) full glasses of water daily to reduce the risk of kidney stones which may result from taking topiramate.
# Patients were advised that while the effect of phentermine is fairly rapid, the effect of topiramate is slower in onset. The weight reduction effect of topiramate will continue for as long as 18 months on the medication. That is, the patient can expect to continue gradual weight loss for up to 18 months on the medication. Of course, weight loss is maximal if the patient follows diet and/or exercise programs. The weight loss should exceed 15% of the patients starting weight. Thus, if the patient weighs about 200 pounds as of the start date, he/she might expect to lose at least 30 pounds in a period of 12–18 months. The following patient data has been collected.
# A total of thirteen patients were treated for 1–9 months with phentermine (15 mg daily) in the morning and up to 400 mg of topiramate (median dose 200 mg), in the evening. […] Along with taking medication, patients were instructed to walk at least 30 minutes three times per week and to follow a low fat diet. No patients had taken diet medication for at least 3 months prior to treatment. Average baseline BMI was 32.5 (range 26–48).
# [2] = literature studies; cited from earlier work
# [3] = Case history of patient(B), topiramate added to phentermine; format: in vivo, human; settings: on phentermine after Redux withdrawal
# Protocol: They once weighed as much as 395 pounds. When Redux was still on the mark in the United States, they were treated with a combination of diet, exercise, Redux and phentermine. Their lowest weight attained was 285 pounds. When Redux was withdrawn from the market, they remained on phentermine but gained weight back to 295–300 pounds. When topiramate was added to their regimen, they managed to lose 25 pounds and is currently at 271 pounds, their lowest weight since they were […].
Structure (SMILES),"weight loss, drug compared with placebo [2]",also measured
CC(C)CC(N(C)C)C1(c2ccc(Cl)cc2)CCC1.Cl (centres unmarked) [Meridia],–,"Follow-Up Weight (lbs) ([1]; individual patients (one per line), phentermine 15 mg daily, topiramate titrated 25 to 200 mg daily): 177 lbs; Follow-Up Blood Pressure ([1]; individual patients): 120/80; % Weight Loss ([1]; individual patients, versus start weight): 2.7%"
CCN[C@@H](C)Cc1cccc(C(F)(F)F)c1 [dexfenfluramine],about 5 % of body weight,–
CCCCCCCCCCC[C@@H](C[C@@H]1OC(=O)[C@H]1CCCCCC)OC(=O)[C@H](CC(C)C)NC=O [orlistat],about 5 % of body weight,–
CC(C)(N)Cc1ccccc1 [phentermine],about 5 % of body weight,weight regained [3]: 295–300 pounds
CC(C)CC(N(C)C)C1(c2ccc(Cl)cc2)CCC1 (centres unmarked) [sibutramine],about 5 % of body weight,–
